The record followed here is the supplement of paper PMC4862054.

Common to all, as to details: incubation time: 72 h
One assay relates to BT-474. As to the kind of experiment: drug sensitivity score (DSS), CellTox Green (DSS (AUC-based score)); higher = stronger drug effect (viability inhibition or cytotoxicity); extreme values may be limits of the assay. Put shortly:
(§1)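 The drug sensitivity score reflects the area under a fitted dose-response curve. To obtain it, breast cancer cells in 20 µl suspension were seeded into 384-well plates containing compound at 5 concentrations, 10-fold apart over a compound-specific 10,000-fold range, and incubated 72 h. CellTox Green fluorescence (485/520 nm) was read first and CellTiter-Glo luminescence second, after 10 min at room temperature. Each plate was normalised to 0.1 % DMSO and a positive kill control.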

For another assay, the system named is HCC1143. The description is as above. Put shortly: as §1
In another assay the test system is MDA-MB-468. Described as above. Put shortly:
as §1

In another assay the test system is CAL-148. Described as above. Put shortly: as §1
In a further assay the test system is MCF-10A. Described as above. Put shortly: as §1
The next assay relates to CAL-120. The description is as above. Put shortly:
as §1

A further assay deals with HCC1937. The description is as above. An outline of the steps: as §1
Another assay concerns HDQ-P1. The assay is described as above. An outline of the steps:
as §1

The next assay concerns CAL-85-1. The assay is described as above. An outline of the steps:
as §1

The test system of assay [1] is CAL-51. The description is as above. An outline of the steps:
as §1

The subject of the next assay is Hs578T. The description is as above. Put shortly:
as §1

For a further assay, the system named is BT-549. Described as above. An outline of the steps: as §1
The subject of the next assay is DU-4475. Described as above. Put shortly:
as §1

The subject of a further assay is MDA-MB-453. The assay is described as above. An outline of the steps:
as §1

Another assay has as its system MDA-MB-436. The description is as above. An outline of the steps: as §1
For a further assay, the system named is HCC1599. Described as above. An outline of the steps: as §1
The subject of assay [2] is MDA-MB-231. The assay is described as above. An outline of the steps:
as §1

A further assay deals with MFM-223. The description is as above. Put shortly:
as §1

Assay [3] concerns CAL-51. The experiment in a line: normalised viability (% of control), CellTiter-Blue; higher = more viable cells (about 100 = DMSO control). The protocol:
(§2)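 DSRT, CellTiter-Blue viability, 72 h incubation. Signal is normalised to DMSO and benzethonium chloride controls. Value is the normalised response at dose 3.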

The test system of assay [4] is MDA-MB-231. Described as above. Here is the method: as §2

On to `CC(C)NC[C@@H](C(=O)N1CCN(c2ncnc3c2[C@H](C)C[C@H]3O)CC1)c1ccc(Cl)cc1` [GDC-0068], for which the drug sensitivity score is 0.545 in the assay on BT-474; 0 in the assay with HCC1143; 3.49 in the assay on MDA-MB-468; 14.1 with CAL-148; 0 in the assay on MCF-10A; 0 in the assay on CAL-120. Moreover, the drug sensitivity score in the assay on HCC1937 stood at 0; with HDQ-P1 it was 0.469; with CAL-85-1 it was 0; with CAL-51 [1], 2.24; in the assay with Hs578T, 0; in the assay with BT-549 it was 0. Further, the drug sensitivity score in the assay with DU-4475 amounted to 0; in the assay on MDA-MB-453, 0; with MDA-MB-436, 0; in the assay with HCC1599, 0; in the assay with MDA-MB-231 [2] it was 0; in the assay with MFM-223, 1.29.

In the case of `CCCc1cc(C)[nH]c(=O)c1CNC(=O)c1cc(-c2ccnc(N3CCN(C)CC3)c2)cc2c1cnn2C(C)C` [GSK343], the drug sensitivity score is 5.28 in the assay on BT-474; 0 in the assay on HCC1143; 0 in the assay with MDA-MB-468; 0 with CAL-148; 0 in the assay with MCF-10A; 0 in the assay on CAL-120. In addition, the drug sensitivity score came out at 0 with HCC1937; 0 with HDQ-P1; 2.18 in the assay on CAL-85-1; 0 with CAL-51 [1]; 4.43 with Hs578T; 0 in the assay on BT-549. The drug sensitivity score is 0 in the assay with DU-4475; 6.47 in the assay with MDA-MB-453; 0 with MDA-MB-436; 1.18 in the assay with HCC1599; 7.22 in the assay on MDA-MB-231 [2]; 7.62 with MFM-223.

Regarding `NC(=O)NO` [Hydroxyurea], the normalised viability was 111% with CAL-51 [3] (100 nM) and 98.2% in the assay with MDA-MB-231 [4] (1000 nM). For the same compound, the drug sensitivity score in the assay on BT-474, with HCC1143, in the assay on MDA-MB-468, in the assay with CAL-148, with MCF-10A and in the assay on CAL-120 was 0 throughout. Further, the drug sensitivity score with HCC1937 was found to be 0; in the assay on HDQ-P1, 0; in the assay on CAL-85-1, 0; with CAL-51 [1], 8.77; in the assay with BT-549, 0; in the assay on DU-4475 it was 0. For the same compound, the drug sensitivity score with MDA-MB-453, with HCC1599, with MDA-MB-231 [2] and in the assay with MFM-223 was 0 each time.

On to `COc1cc2c(cc1-c1c(C)noc1C)ncc1[nH]c(=O)n([C@H](C)c3ccccn3)c12` [I-BET151], for which the drug sensitivity score in the assay on BT-474 was 0; with HCC1143, 0; in the assay on MDA-MB-468 it was 5.63; with CAL-148, 0; in the assay with MCF-10A it was 2.02; in the assay with CAL-120, 0. The drug sensitivity score is 0 in the assay on HCC1937; 5.77 with HDQ-P1; 5.11 with CAL-85-1; 4.63 with CAL-51 [1]; 0 with Hs578T; 0 with BT-549. Besides, the drug sensitivity score in the assay on DU-4475 is 0.559; in the assay with MDA-MB-453, 0; in the assay on MDA-MB-436, 1.57; in the assay with HCC1599 it was 0; in the assay with MDA-MB-231 [2], 1.07; with MFM-223 it was 0.

As for `CC(C)n1nc(-c2ccc3oc(N)nc3c2)c2c(N)ncnc21` [INK128], the drug sensitivity score is 0 in the assay on BT-474; 0 in the assay with HCC1143; 0 in the assay on MDA-MB-468; 8.35 in the assay with CAL-148; 0 in the assay on MCF-10A; 0 with CAL-120. For the same compound, the drug sensitivity score was determined as 0 with HCC1937; 0 in the assay with HDQ-P1; 0 in the assay on CAL-85-1; 1.08 in the assay on CAL-51 [1]; 10.3 with Hs578T; 0 in the assay on BT-549. For the same compound, the drug sensitivity score in the assay on DU-4475 was 0; in the assay with MDA-MB-453 it was 0; with MDA-MB-436, 0; in the assay with HCC1599, 0; in the assay on MDA-MB-231 [2], 0; in the assay on MFM-223 it was 3.35.

As to `Cc1c(C(=O)Nc2ccc(N3C[C@@H](C)O[C@@H](C)C3)nc2)cccc1-c1ccc(OC(F)(F)F)cc1` [NVP-LDE225], the normalised viability came out at 99.7% with CAL-51 [3] (10 nM) and 99% with MDA-MB-231 [4] (100 nM).

For `C[C@]12C=CC(=O)C=C1CC[C@@H]1[C@@H]2C(=O)C[C@@]2(C)[C@H]1CC[C@]2(O)C(=O)CO` [Prednisone], the normalised viability in the assay with CAL-51 [3] (10 nM) was 102%; in the assay on MDA-MB-231 [4] (100 nM), 100%. The drug sensitivity score with BT-474 worked out at 0; in the assay with HCC1143 it was 0; in the assay on MDA-MB-468 it was 0; in the assay on CAL-148, 0; in the assay on MCF-10A it was 0; in the assay on CAL-120, 0.113. Further, the drug sensitivity score with HCC1937, with HDQ-P1, with CAL-85-1, in the assay with CAL-51 [1], with BT-549 and with DU-4475 was 0 in each case. Moreover, the drug sensitivity score in the assay with MDA-MB-453, with MDA-MB-436, in the assay on HCC1599, in the assay on MDA-MB-231 [2] and in the assay with MFM-223 was 0 each time.

Consider `C[C@@H](C(=O)O)c1ccc(-c2ccccc2)c(F)c1` [Tarenflurbil], for which the values for the normalised viability in the assay with CAL-51 [3] (10 nM) and in the assay on MDA-MB-231 [4] (100 nM) were 118% and 90.8%, respectively. The drug sensitivity score turned out to be 0.00754 in the assay with BT-474; 0 in the assay on HCC1143; 0 with MDA-MB-468; 0 with CAL-148; 0.986 in the assay on MCF-10A; 0 in the assay with CAL-120. The drug sensitivity score in the assay on HCC1937, in the assay with HDQ-P1, with CAL-85-1, in the assay on CAL-51 [1], in the assay with BT-549 and in the assay on DU-4475 was 0 throughout. The drug sensitivity score in the assay on MDA-MB-453, in the assay with MDA-MB-436, with HCC1599, in the assay on MDA-MB-231 [2] and in the assay on MFM-223 was 0 in each case.

Regarding `CN1CCc2c(c3ccccc3n2Cc2ccc(C(=O)NO)cc2)C1` [Tubastatin A], the drug sensitivity score in the assay on BT-474 turned out to be 0.156; in the assay with HCC1143 it was 10; with MDA-MB-468, 1.42; in the assay on CAL-148 it was 0; with MCF-10A, 0; with CAL-120 it was 0. Moreover, the drug sensitivity score with HCC1937 came out at 0; with HDQ-P1 it was 0; with CAL-85-1, 0; in the assay on CAL-51 [1], 7.48; in the assay with Hs578T it was 0; in the assay on BT-549, 0. In addition, the drug sensitivity score with DU-4475 came out at 0; with MDA-MB-453 it was 0; with MDA-MB-436, 0; with HCC1599, 0; in the assay on MDA-MB-231 [2], 2.06; with MFM-223 it was 0.
